The test system of one experiment is Murf1 gene (mRNA). Description: Inhibition of expression of Murf1 gene (mRNA) in dexamethasone-induced muscle loss model (PCR). It is filed as cell-based, mouse. The note with it: differentiated C2C12, dexamethasone 1 μM, dexibuprofen 100 μM, 6 hours, control group = dexamethasone only. The method, then:
(§1) In the present Experimental Example 2, experiments were conducted to evaluate the inhibitory efficacy of the bean leaf extract against the overexpression of Atrogin1 and Murf1 mRNA in the muscle loss induced model by dexamethasone. The experimental group, the control group and the comparison group of Experimental Example 2 were prepared in the same manner as Experimental Example 1. Provided that, when 6 hours had elapsed since the treatment with each final material, RNA was extracted with trizol reagent (TRIzol agent, Invitrogen) after washing twice with cold saline, […] Expression patterns of each gene were measured using primers and probes (Applied biosystems) previously designed for genes of the synthesized cDNA and Atrogin1, Murf1, and GAPD. At this time, polymerase chain reaction (PCR) and analysis were performed using a Rotor-Gene 3000 system (Corbett Research, Sydney, Australia). To increase the reliability, each sample was repeatedly measured three times to derive the average value.

The test system of a further experiment is Atrogin1 gene (mRNA). Description: Inhibition of expression of Atrogin1 gene (mRNA) in dexamethasone-induced muscle loss model (PCR). It is filed as cell-based, mouse. The note with it: differentiated C2C12, dexamethasone 1 μM, dexibuprofen 100 μM, 6 hours, control group = dexamethasone only. As for the experimental part:
as §1

For a further experiment, the system named is C2C12 (mouse myoblast). Description: Ability to recover cell activity of myocyte in dexamethasone-induced muscle loss model (CCK8, absorbance 450 nm). It is filed as cell-based. The note with it: differentiated C2C12, dexamethasone 1 μM, dexibuprofen 100 μM, 24 hours, control group = dexamethasone only. The method, then:
In the present Experimental Example 1, the experiments were conducted to evaluate the recovery efficacy of the bean leaf extract on the decrease in cell activity of myocyte in a model of muscle loss induced by Dexamethasone. Dexamethasone is a kind of glucocorticoid, and increases expression of the Atrogin1 and Murf1 in vitro and in vivo to accelerate proteolytic degradation, thereby resulting in decrease in skeletal muscle, induction of myocyte death, and reduction of cell activity. Accordingly, an experimental model of dexamethasone to myocyte is a useful model for evaluating the function of sarcopenia and is widely used. The C2C12 (mouse myoblast) used in Experimental Example 1 was purchased from American Type Culture Collection (Manassas, Va., USA) and the cells were cultured in DMEM containing 10% FBS, 100 units/mL Penicillin, and […] streptomycin. Specific experimental methods are as follows. […] After 24 hours of treatment with the material, the medium was replaced with medium containing 10% solution of CCK8 […], and allowed to react for 10 minutes, and the cell activity was measured by measuring the absorbance at 450 nm. To increase the reliability, each sample was repeatedly measured three times to derive the average value.

As for `CC(C)Cc1ccc([C@H](C)C(=O)O)cc1` [Dexibuprofen, dexibuprofen], the “Change in Murf1 gene expression relative to control group (%)” value is reported as −3.3% in the experiment with Murf1 gene (mRNA) and “insignificant” with Murf1 gene (mRNA) (listed as dexibuprofen). Besides, the results for the “Change in Atrogin1 gene expression relative to control group (%)” value in the experiment with Atrogin1 gene (mRNA) and with Atrogin1 gene (mRNA) (listed as dexibuprofen) were −2.6% and “insignificant”, respectively. Also, the “Change in cell activity relative to control group (%)” value with C2C12 (mouse myoblast) is given as −4.1%; in the experiment with C2C12 (mouse myoblast) (listed as dexibuprofen), “no recovery of myocyte activity is observed”.
